Assay results from patent EP0258006A2, “Monoclonal antibodies reactive with chlorinated dibenzo-p-dioxins and method of preparing and using same” (WE[…] CORPORATION, priority 1986, dated 1988).

Assays:
[1] = system: monoclonal antibodies reactive with 2,3,7,8-TCDD in hybridoma culture supernatants (the 6 of 384 cultures positive by CIEIA); experiment: competitive inhibition enzyme immunoassay (CIEIA) of hybridoma culture supernatants; type: binding, BALB/c mice; conditions: culture supernatants preincubated with 1.0 × 10⁻⁴ M 2,3,7,8-TCDD; plates coated with BSA-adipamidoyl,3,7,8-trichlorodibenzo-p-dioxin conjugate; 6 positive cultures; 100 µM
[2] = system: ATCC HB 9183 antibody (monoclonal antibody, IgG1, produced by hybridoma ATCC HB 9183); experiment: competitive inhibition enzyme immunoassay (CIEIA) with ATCC HB 9183 culture supernatant; type: binding, BALB/c mice; conditions: 1:5 dilution of culture supernatant preincubated 1 hour at room temperature with various concentrations of TCDD; linear curve in Figure 3

## Clc1cc2c(cc1Cl)Oc1cc(Cl)c(Cl)cc1O2 [2,3,7,8-TCDD, 2,3,7,8-tetrachlorodibenzo-p-dioxin]
[1]
  inhibition of antibody binding to the solid phase-bound conjugate: at least 50%
[2]
  binding of antibody to free TCDD (CIEIA, Figure 3): binds directly to free TCDD
